Results from ChEMBL document CHEMBL1909046, “DrugMatrix in vitro pharmacology data”.

Assays:
[1] = DRUGMATRIX: Sigma2 radioligand binding (ligand: [3H] Ifenprodil); type: cell membranes, Rattus norvegicus, Wistar, Brain, Membrane; details: Not Active = under 50% inhibition at 10 µM
[2] = target: T1, Thromboxane-A synthase (Homo sapiens, UniProt P24557); assay: biochemical; type: tissue-based, Platelet; details: platelet;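 also: enzyme inhibition assay with PGH2 supplied as substrate; in other assays of this panel Not Active means under 50% inhibition at 10 µM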
T1 sequence (P24557 whole entry): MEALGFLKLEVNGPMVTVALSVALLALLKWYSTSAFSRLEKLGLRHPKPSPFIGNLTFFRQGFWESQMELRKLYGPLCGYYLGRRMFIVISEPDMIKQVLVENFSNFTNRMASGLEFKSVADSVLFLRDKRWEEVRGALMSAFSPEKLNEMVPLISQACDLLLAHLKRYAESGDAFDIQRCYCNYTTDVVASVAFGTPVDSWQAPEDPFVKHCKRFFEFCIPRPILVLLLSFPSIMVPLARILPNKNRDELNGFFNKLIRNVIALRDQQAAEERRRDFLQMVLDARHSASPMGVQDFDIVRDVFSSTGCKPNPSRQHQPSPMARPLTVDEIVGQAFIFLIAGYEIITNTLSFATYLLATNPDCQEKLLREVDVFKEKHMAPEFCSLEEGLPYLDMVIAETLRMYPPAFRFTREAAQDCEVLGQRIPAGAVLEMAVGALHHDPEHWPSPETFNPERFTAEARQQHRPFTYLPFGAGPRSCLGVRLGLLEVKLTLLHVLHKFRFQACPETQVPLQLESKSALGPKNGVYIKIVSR

[3] = DRUGMATRIX: Glutamate, Kainate radioligand binding (ligand: [3H] Kainic acid); type: cell membranes, Rattus norvegicus, Wistar, Brain, Membrane; details: Not Active = under 50% inhibition at 10 µM
[4] = target: T2, 3-hydroxy-3-methylglutaryl-coenzyme A reductase (Homo sapiens, UniProt P04035); parameters: species or system Escherichia coli;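 also: enzyme inhibition assay of HMG-CoA reductase using radiolabeled [14C]HMG-CoA as substrate; in other assays of this panel Not Active means under 50% inhibition at 10 µM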
T2 sequence (P04035 whole entry): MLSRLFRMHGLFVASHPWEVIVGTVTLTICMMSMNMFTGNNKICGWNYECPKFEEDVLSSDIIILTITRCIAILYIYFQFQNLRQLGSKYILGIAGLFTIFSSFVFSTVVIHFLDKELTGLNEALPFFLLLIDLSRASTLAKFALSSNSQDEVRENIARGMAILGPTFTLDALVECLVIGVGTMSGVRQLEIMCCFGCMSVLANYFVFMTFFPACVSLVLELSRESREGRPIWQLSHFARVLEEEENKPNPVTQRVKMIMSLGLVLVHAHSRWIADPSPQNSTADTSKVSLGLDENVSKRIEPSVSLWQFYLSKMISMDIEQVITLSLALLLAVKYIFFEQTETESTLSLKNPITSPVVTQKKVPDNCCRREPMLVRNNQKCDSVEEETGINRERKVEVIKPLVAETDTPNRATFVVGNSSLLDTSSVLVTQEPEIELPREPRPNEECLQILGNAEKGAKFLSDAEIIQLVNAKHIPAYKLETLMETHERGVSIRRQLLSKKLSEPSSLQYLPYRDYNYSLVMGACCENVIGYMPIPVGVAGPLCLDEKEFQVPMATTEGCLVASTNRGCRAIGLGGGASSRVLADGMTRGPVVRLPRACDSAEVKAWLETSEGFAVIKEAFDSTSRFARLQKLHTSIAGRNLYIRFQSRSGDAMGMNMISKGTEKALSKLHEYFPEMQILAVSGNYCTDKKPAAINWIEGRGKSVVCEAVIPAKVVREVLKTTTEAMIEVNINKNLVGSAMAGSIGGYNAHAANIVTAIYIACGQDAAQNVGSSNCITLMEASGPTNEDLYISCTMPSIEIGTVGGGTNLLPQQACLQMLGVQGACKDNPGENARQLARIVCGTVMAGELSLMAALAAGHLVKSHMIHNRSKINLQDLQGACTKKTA

[5] = target: Insulin receptor (Rattus norvegicus, UniProt P15127); type: cell membranes, Wistar, Liver, Membrane; also: in other assays of this panel Not Active means under 50% inhibition at 10 µM
Insulin receptor, sequence (P15127 27-759 limits assumed): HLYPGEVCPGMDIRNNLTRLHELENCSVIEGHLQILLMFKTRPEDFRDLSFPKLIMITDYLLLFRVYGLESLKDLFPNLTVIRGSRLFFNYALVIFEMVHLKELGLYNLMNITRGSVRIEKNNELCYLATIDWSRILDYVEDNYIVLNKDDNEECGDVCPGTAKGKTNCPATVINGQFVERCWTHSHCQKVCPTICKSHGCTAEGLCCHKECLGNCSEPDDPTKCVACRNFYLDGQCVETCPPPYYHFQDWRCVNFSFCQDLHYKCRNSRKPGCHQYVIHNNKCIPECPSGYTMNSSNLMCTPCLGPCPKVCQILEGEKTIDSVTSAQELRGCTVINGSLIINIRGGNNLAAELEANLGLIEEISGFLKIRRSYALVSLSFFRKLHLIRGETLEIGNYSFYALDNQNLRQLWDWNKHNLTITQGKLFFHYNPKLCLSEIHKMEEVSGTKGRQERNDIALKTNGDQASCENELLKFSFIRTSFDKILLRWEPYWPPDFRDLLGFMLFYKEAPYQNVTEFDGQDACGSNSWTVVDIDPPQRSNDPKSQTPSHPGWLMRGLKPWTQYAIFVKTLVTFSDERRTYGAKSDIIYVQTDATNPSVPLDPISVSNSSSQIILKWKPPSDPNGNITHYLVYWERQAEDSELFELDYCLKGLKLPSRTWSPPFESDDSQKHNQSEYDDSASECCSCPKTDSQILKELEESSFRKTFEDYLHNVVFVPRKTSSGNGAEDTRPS
Insulin receptor, sequence (P15127 764-1383 limits assumed): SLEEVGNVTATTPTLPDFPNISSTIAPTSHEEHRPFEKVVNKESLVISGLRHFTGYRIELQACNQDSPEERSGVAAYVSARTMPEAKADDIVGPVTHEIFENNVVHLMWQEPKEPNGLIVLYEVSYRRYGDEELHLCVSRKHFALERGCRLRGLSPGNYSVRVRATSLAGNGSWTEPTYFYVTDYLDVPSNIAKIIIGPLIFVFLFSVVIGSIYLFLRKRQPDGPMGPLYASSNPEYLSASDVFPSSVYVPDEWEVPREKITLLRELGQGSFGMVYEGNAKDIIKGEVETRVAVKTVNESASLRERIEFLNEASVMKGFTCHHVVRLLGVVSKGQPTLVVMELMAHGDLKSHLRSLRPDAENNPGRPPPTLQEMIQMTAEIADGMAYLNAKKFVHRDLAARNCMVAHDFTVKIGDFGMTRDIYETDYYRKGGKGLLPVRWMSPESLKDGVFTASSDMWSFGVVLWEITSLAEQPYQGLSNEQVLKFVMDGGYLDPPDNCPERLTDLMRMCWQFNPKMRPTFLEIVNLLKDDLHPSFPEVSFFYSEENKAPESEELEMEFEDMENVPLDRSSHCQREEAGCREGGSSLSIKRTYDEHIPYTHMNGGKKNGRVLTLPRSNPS

[6] = target: T3, Muscarinic acetylcholine receptor M2 (Homo sapiens, UniProt P08172); type: cell membranes, CHO-K1, Membrane; details: cho-k1; also: in other assays of this panel Not Active means under 50% inhibition at 10 µM
T3 sequence (P08172 whole entry): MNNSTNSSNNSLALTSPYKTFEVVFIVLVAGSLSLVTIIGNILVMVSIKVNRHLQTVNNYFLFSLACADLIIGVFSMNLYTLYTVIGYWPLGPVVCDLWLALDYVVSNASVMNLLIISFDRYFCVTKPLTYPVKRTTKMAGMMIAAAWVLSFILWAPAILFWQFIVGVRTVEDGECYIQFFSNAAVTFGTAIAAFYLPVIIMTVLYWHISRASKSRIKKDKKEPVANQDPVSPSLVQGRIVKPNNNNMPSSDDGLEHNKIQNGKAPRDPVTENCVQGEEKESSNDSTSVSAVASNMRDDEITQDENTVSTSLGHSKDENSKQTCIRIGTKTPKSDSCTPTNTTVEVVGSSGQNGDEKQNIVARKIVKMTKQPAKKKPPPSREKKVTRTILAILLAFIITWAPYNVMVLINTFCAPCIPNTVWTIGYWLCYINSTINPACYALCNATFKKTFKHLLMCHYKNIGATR

[7] = target: T4, Caspase-1 (Homo sapiens, UniProt P29466); parameters: species or system Escherichia coli
T4 sequence (P29466 whole entry): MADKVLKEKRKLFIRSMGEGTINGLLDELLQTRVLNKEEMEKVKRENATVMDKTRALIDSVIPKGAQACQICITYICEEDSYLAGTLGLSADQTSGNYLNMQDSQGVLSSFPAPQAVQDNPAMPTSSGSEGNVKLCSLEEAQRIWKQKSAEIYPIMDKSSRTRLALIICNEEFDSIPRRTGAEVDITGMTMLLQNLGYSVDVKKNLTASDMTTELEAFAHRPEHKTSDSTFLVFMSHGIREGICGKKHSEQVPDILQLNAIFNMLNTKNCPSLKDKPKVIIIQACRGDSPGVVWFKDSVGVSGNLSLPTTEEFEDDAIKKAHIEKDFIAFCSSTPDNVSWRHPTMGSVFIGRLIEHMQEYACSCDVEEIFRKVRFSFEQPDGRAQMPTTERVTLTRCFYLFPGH

COc1cc2c(c3oc(=O)c4c(c13)CCC4=O)[C@@H]1C=CO[C@@H]1O2 [AFLATOXIN]
Not Active: IC50 [1] | Ki [1] | IC50 [2] | Ki [2] | IC50 [3] | Ki [3] | IC50 [4] | Ki [4] | IC50 [5] | Ki [5] | IC50 [6] | Ki [6] | IC50 [7] | Ki [7]

CC1(C)O[C@@H]2C[C@H]3[C@@H]4C[C@H](F)C5=CC(=O)CC[C@]5(C)[C@H]4[C@@H](O)C[C@]3(C)[C@]2(C(=O)CO)O1 [FLURANDRENOLIDE]
Not Active: IC50 [1] | Ki [1] | IC50 [2] | IC50 [3] | Ki [3] | IC50 [4] | IC50 [5] | IC50 [6] | IC50 [7]

CC1(C)O[C@@H]2C[C@H]3[C@@H]4C[C@H](F)C5=CC(=O)C=C[C@]5(C)[C@@]4(F)[C@@H](O)C[C@]3(C)[C@]2(C(=O)CO)O1 [FLUOCINOLONE ACETONIDE]
Not Active: IC50 [1] | Ki [1] | IC50 [2] | IC50 [3] | Ki [3] | IC50 [4] | IC50 [5] | IC50 [6] | IC50 [7]

CC(C(=O)O)c1cccc(C(=O)c2ccccc2)c1 (centres undefined) [KETOPROFEN]
Not Active: IC50 [1] | Ki [1] | IC50 [2] | IC50 [3] | Ki [3] | IC50 [4] | IC50 [5] | IC50 [6] | IC50 [7]

NC(=O)NO [HYDROXYUREA]
Not Active: IC50 [1] | Ki [1] | IC50 [2] | IC50 [3] | Ki [3] | IC50 [4] | IC50 [5] | IC50 [6] | IC50 [7]

O=c1ccc2ccccc2o1 [COUMARIN]
Not Active: IC50 [1] | Ki [1] | IC50 [2] | IC50 [3] | Ki [3] | IC50 [4] | IC50 [5] | IC50 [6] | IC50 [7]

CN1C(=O)COc2c(C(=O)NC3CN4CCC3CC4)cc(Cl)cc21 (centres undefined) [AZASETRON]
Not Active: IC50 [1] | Ki [1] | IC50 [2] | IC50 [3] | Ki [3] | IC50 [4] | IC50 [5] | IC50 [6] | IC50 [7]

C[C@H]1C[C@H]2[C@@H]3CCC4=CC(=O)C=C[C@]4(C)[C@@]3(Cl)[C@@H](O)C[C@]2(C)[C@@]1(O)C(=O)CO [BECLOMETHASONE]
Not Active: IC50 [1] | Ki [1] | IC50 [2] | IC50 [3] | Ki [3] | IC50 [4] | IC50 [5] | IC50 [6] | IC50 [7]

Cc1cc(=O)n(-c2ccccc2)n1C [ANTIPYRINE]
Not Active: IC50 [1] | Ki [1] | IC50 [2] | IC50 [3] | Ki [3] | IC50 [4] | IC50 [5] | IC50 [6] | IC50 [7]

COc1cccc2c1C(=O)c1c(O)c3c(c(O)c1C2=O)C[C@@](O)(C(=O)CO)C[C@@H]3O[C@H]1C[C@H](N)[C@@H](O)[C@H](C)O1 [EPIRUBICIN]
Not Active: IC50 [1] | Ki [1] | IC50 [2] | IC50 [3] | Ki [3] | IC50 [4] | IC50 [5] | IC50 [6] | IC50 [7]

C[C@](O)(CS(=O)(=O)c1ccc(F)cc1)C(=O)Nc1ccc(C#N)c(C(F)(F)F)c1 [(R)-BICALUTAMIDE]
Not Active: IC50 [1] | Ki [1] | IC50 [2] | IC50 [3] | Ki [3] | IC50 [4] | IC50 [5] | IC50 [6] | IC50 [7]
